In brackets after ≈: the same amount, converted by molar mass.
What was measured:
[1] = tested on: P. aeruginosa IBRS P001 biofilm; assay: Congo red binding assay, exopolysaccharide production (biofilm formation); assay type: cell-based, Pseudomonas aeruginosa
Experimental: The estimation of rutin’s impact on biofilm exopolysaccharide production (EPS) was determined by the Congo red binding assay. P. aeruginosa IBRS P001 biofilm EPS production was determined as previously described. […] The planktonic cells were removed, and the adherent cells were washed with PBS. Wells were stained with 1% (w/v) Congo red (SigmaAldrich, Germany) in the dark for 30 min. Wells were aspirated and subsequently the bound dye was solubilized with 200 μL DMSO. Absorbance at 490 nm was measured in a microtiter plate reader Multiskan™ FC microplate photometer (Thermo Scientific™, United States) and the inhibition percentage of EPS production was calculated according to the following equation:%Inhibition = [(A490control − A490sample)/A490control] × 100
With A490control representing the absorbance of the untreated biofilm and A490sample the absorbance of the rutin treated sample. The solvent treated sample was used as the control.

[2] = tested on: A. baumannii 6077/12; assay: Antimicrobial microdilution assay (MIC/MBC); assay type: cell-based, Acinetobacter baumannii; settings: Acinetobacter baumannii, 6077/12
How it was run: (§1)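 Polyphenols 0.0039–1 mg/mL, stocks in 30% ethanol; inoculum 0.5 McFarland diluted twenty-fold, mixed 1:10; 24 h, 37 °C. MIC = no visible growth (binocular microscope). Streptomycin positive control, ethanol negative control; triplicate.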

[3] = tested on: A. baumannii S2/2; assay: Antimicrobial microdilution assay (MIC/MBC); assay type: cell-based, Acinetobacter baumannii; settings: Acinetobacter baumannii, S2/2
How it was run: as §1

[4] = tested on: MRSA IBRS MRSA 011; assay: Catheter biofilm inhibition model; assay type: cell-based, Staphylococcus aureus; settings: even in the sub-MIC concentration, 24 h
Experimental: The method was performed as described previously, with some modifications. Sterile silicon 16-mm Romed catheters (Van Oostveen Medical, Wilnis, The Netherlands) were cut into 1 cm lengths and placed in 24-well plates (Sarstedt, Nümbrecht, Germany). P. aeruginosa IBRS P001 and MRSA in TSB with 2% glucose (Torlak, Belgrade, Serbia) and rutin (0.25–1 MIC) were added for the inhibition assay. After incubation (37 °C, 24 h), the catheters were washed with PBS and transferred to 1.5 mL tubes. PBS was added and tubes were vortexed vigorously. The samples were diluted and seeded onto Plate Count Agar (HiMedia Laboratories, Mumbai, India). After being incubated at 37 °C for 24 h, the CFU (colony forming units) count was determined and the inhibition percentage relative to the untreated control was calculated.

[5] = tested on: multiple drug resistant P. aeruginosa; design: method as in doi:10.1016/j.foodcont.2018.02.044; settings: cited from earlier work
[6] = tested on: A. xylosoxidans 37F; assay: Antimicrobial microdilution assay (MIC/MBC); assay type: cell-based, Achromobacter xylosoxidans; settings: Achromobacter xylosoxidans, 37F
How it was run: as §1

[7] = tested on: E. coli IBRS E003; assay: Antimicrobial microdilution assay (MIC/MBC); assay type: cell-based, Escherichia coli; settings: Escherichia coli, IBRSE003
How it was run: as §1

[8] = tested on: E. coli IMD989; assay: Antimicrobial microdilution assay (MIC/MBC); assay type: cell-based, Escherichia coli; settings: Escherichia coli, IMD989
How it was run: as §1

[9] = tested on: P. aeruginosa IBRS P001 biofilm; assay: Biofilm MTT assay (biofilm formation); assay type: cell-based, Pseudomonas aeruginosa; settings: rutin MIC, co-incubation 24 h
Experimental: The impact of rutin on P. aeruginosa IBRS P001 biofilm formation was determined as previously described by estimating the metabolic activity of microbial cells using an MTT assay. […] The supernatants were then ejected and the biofilms washed with PBS. MTT reagent (200 μL, 0.5 mg/mL) was added and the plate was incubated at 37 °C in the dark for 2 h. The resulting dye was dissolved in DMSO and the absorbance was measured at 570 nm in a microtiter plate reader Multiskan™ FC Microplate Photometer, Thermo Scientific™. The inhibition percentage of biofilm cell viability was calculated:%Inhibition = [(A570control − A570sample)/A570control] × 100
With A570control representing the absorbance of untreated sample, and A570sample representing the absorbance of the rutin treated sample. A solvent-treated sample was used as the control.

[10] = tested on: P. aeruginosa IBRS P001 rhamnolipid production; assay: Rhamnolipid assay; assay type: cell-based, Pseudomonas aeruginosa; settings: 0.25 mg/mL (0.5 MIC), compared to the control
Experimental: Culture supernatants of the previously cultivated P. aeruginosa IBRS P001 strain incubated with rutin 0.250 mg/mL were acidified by using HCl to pH 2.0 [72]. Rhamnolipid production was measured spectrophotometrically at 570 nm by a Plate Reader Infinite 200 pro (MTX Lab Systems, Vienna, VA, USA). A solvent treated culture supernatant was used as a positive control.

[11] = subcultivation, 24 h at 37 °C, read-out: MBC

With `C[C@@H]1O[C@@H](OC[C@H]2O[C@@H](Oc3c(-c4ccc(O)c(O)c4)oc4cc(O)cc(O)c4c3=O)[C@H](O)[C@@H](O)[C@@H]2O)[C@H](O)[C@H](O)[C@H]1O` [Rutin, rutin] the “exopolysaccharide level, % of production compared to vehicle treated control” value (“exopolysaccharide level, % of production” below) ([1]; 0.25 MIC) was 72%, the “exopolysaccharide level, % of production” value ([1]; 0.5 MIC) was 56% and the “exopolysaccharide level, % of production” value ([1]; MIC) was 50%. It also gave an inhibition at 250 µg/mL ([1]; Pseudomonas aeruginosa, IBRSP001BIOFILM, read-out: inhibition of produced exopolysaccharides) of 44%, an MIC ([2]; 37 °C, 24 h, read-out: MIC) of 500 µg/mL (≈ 819 µM) and an MBC [2, 11] of 500 µg/mL (≈ 819 µM). For the same compound, the MIC ([3]; 37 °C, 24 h, read-out: MIC) was 500 µg/mL (≈ 819 µM), the MBC [3, 11] was 500 µg/mL (≈ 819 µM) and the “catheter biofilm forming ability, in words” value [4] was “significantly reduced”. For the same compound, the MIC [5] was 800 µg/mL (≈ 1310 µM), the MIC ([6]; 37 °C, 24 h, read-out: MIC) was 500 µg/mL (≈ 819 µM) and the MBC [6, 11] was 1000 µg/mL (≈ 1640 µM). The MIC ([7]; 37 °C, 24 h, read-out: MIC) was > 1000 µg/mL, the MBC [7, 11] was > 1000 µg/mL and the MIC ([8]; 37 °C, 24 h, read-out: MIC) was 1000 µg/mL (≈ 1640 µM). The MBC [8, 11] was 1000 µg/mL (≈ 1640 µM), the “reduction of metabolic activity of cells forming the biofilm” value [9] was 88% and the “decrease of rhamnolipid production” value [10] was 74.4%.

Source: paper PMC8952364, “Polyphenols as Inhibitors of Antibiotic Resistant Bacteria—Mechanisms Underlying Rutin Interference with Bacterial Virulence” (Pharmaceuticals, 2022)
